Key:
[1] = Absorption in a Caco-2 cells model; format: in vitro ADME; conditions: human
Procedure: Absorption of the compounds of formula (I) was tested in a Caco-2 cells model (Gastroenterology 1989, 96, 736): […]

[2] = system: 14C-cholesterol absorption; assay: In vivo testing of cholesterol absorption inhibitors (A); conditions: Mus musculus, po; 0.2 μmol/kg by gavage, procedure A, C57BL/6 female mice
Procedure: In Vivo Testing of Cholesterol Absorption Inhibitors (A)
C57BL/6 female mice were maintained on regular chow diet and housed in individual cages to collect faeces. Mice were fasted for 3 hours and then gavaged with vehicle or compound. Half an hour later the mice were gavaged with radiolabelled cholesterol. Six hours after the ^14C-cholesterol gavage blood samples were taken via the tail and plasma prepared to determine how much cholesterol were absorbed. 24 hours after the gavage of ^14C-cholesterol the mice were bled and plasma were prepared for analysis. Faeces were collected for 24 hours to assess absorption efficiency.

| Papp [1] | SMILES | inhibition at 0.2 µmol/kg [2] |
| --- | --- | --- |
| 0.05 ×10⁻⁶ cm/s | O=C(COc1ccc([C@@H]2[C@@H](SCC(O)c3ccc4c(c3)CCO4)C(=O)N2c2ccc(F)cc2)cc1)NCC(=O)N[C@H](CC1CCCCC1)C(=O)O (stereo partly drawn) [Example 1, N-({4-[(2R,3R)-3-{[2-(2,3-dihydro-1-benzofuran-5-yl)-2-hydroxyethyl]thio}-1-(4-fluorophenyl)-4-oxoazetidin-2-yl]phenoxy}acetyl)glycyl-3-cyclohexyl-D-alanine] | – |
| – | NCCCC[C@@H](NC(=O)CNC(=O)COc1ccc([C@@H]2[C@@H](SCC(O)c3ccc4c(c3)CCO4)C(=O)N2c2ccc(F)cc2)cc1)C(=O)O (stereo partly drawn) [Example 3, N-({4-[(2R,3R)-3-{[2-(2,3-dihydro-1-benzofuran-5-yl)-2-hydroxyethyl]thio}-1-(4-fluorophenyl)-4-oxoazetidin-2-yl]phenoxy}acetyl)glycyl-D-lysine] | 59% |
| – | CC(C)(C)[C@@H](NC(=O)CNC(=O)COc1ccc([C@@H]2[C@@H](SCC(O)c3ccc4c(c3)CCO4)C(=O)N2c2ccc(F)cc2)cc1)C(=O)O (stereo partly drawn) [Example 4, N-({4-[(2R,3R)-3-{[2-(2,3-dihydro-1-benzofuran-5-yl)-2-hydroxyethyl]thio}-1-(4-fluorophenyl)-4-oxoazetidin-2-yl]phenoxy}acetyl)glycyl-3-methyl-D-valine] | 53% |

From patent publication US7893048B2, “2-azetidinone derivatives as cholesterol absorption inhibitors for the treatment of hyperlipidaemic conditions” (AstraZeneca AB, priority 2005, dated 2011)
